Counter-ions that a name gives are not always drawn. Like-named read-outs stand apart in the source and are kept apart here.
Assays:
Assay type in all cases: cell-based
BxPC-3 = assay: Cell viability analysis (WST-1), BxPC-3; settings: Homo sapiens, BXPC-3, 72 h, Table 4, repeated experiments, drug 10 μM, read-out: survival rate (viability) of cancer cells, BxPC-3
Procedure: (§1) Subculture the different types of cancer cells. The cancer cells includes lung cancer, gastric cancer, hepatic cancer, colon cancer, skin cancer, cervical cancer, prostate cancer, bladder cancer, breast cancer, leukemia, pancreatic cancer, ovarian cancer, tongue cancer, osteosarcoma, and renal cancer. The cell numbers were counted and reseed as 2×10^6 in cell culture plate/flask. Then, the culture medium for culturing the cell lines was added to a volume of 10 ml, and the cells were cultured for 2-3 days. Then, the cells were suspended for loading into 96-well plates. The cell number was 3000 cells and the volume of the culture medium was 100 ul each well.
(§2) Removing the original culture medium from 96-well plate. Then add 100 μl of commercially drug at a concentration of 10 μM per well. After 72 hours, add the diluted WST-1 reagent to the well with 100 μl/well, and the diluted WST-1 reagent was acquired from the dilution of 9:1 medium and WST-1 stock reagent. Finally, the total volume of each well are 200 μl/well. Culture the 96-well plate at 37° C. for 30 to 90 minutes. Detecting and calculating the survival rate of each cancer cells with an ELISA reader at OD450 nm. The lower viability of cancer cells represents better inhibition effect via the drugs. Otherwise, the higher viability of cancer cells represents worse inhibition effect via the drugs.
(§3) According to the above mentioned cardiovascular drugs for cancer growth inhibition in Table 3, the inventors took the repeat experiments for the cardiovascular drugs to check the growth inhibitory effects of cancer cells by the cardiovascular drugs. […] 4.

[1] = system: TSGH-8301 (Urinary Bladder Carcinoma); assay: Cell viability analysis (WST-1), TSGH-8301
BCC = assay: Cell viability analysis (WST-1), BCC; settings: BCC, 72 h, Table 4, repeated experiments, drug 10 μM, read-out: survival rate (viability) of cancer cells, BCC
[2] = system: AGS (Gastric Adenocarcinoma); assay: Cell viability analysis (WST-1), AGS
[3] = system: MKN-45 (Gastric Adenocarcinoma); assay: Cell viability analysis (WST-1), MKN-45; settings: Homo sapiens
[4] = system: MCF7 (Mammary Gland, Adenocarcinoma); assay: Cell viability analysis (WST-1), MCF7; settings: Homo sapiens
[5] = system: HCT116 (Colorectal Carcinoma); assay: Cell viability analysis (WST-1), HCT116; settings: Homo sapiens
SAS = assay: Cell viability analysis (WST-1), SAS; settings: 72 h, Table 4, repeated experiments, drug 10 μM, read-out: survival rate (viability) of cancer cells, SAS
Procedure: as §1, §2, §3

[6] = system: PC3 (Prostate Adenocarcinoma); assay: Cell viability analysis (WST-1), PC3
AsPC-1 = assay: Cell viability analysis (WST-1), AsPC-1; settings: Homo sapiens, ASPC1, 72 h, Table 4, repeated experiments, drug 10 μM, read-out: survival rate (viability) of cancer cells, AsPC-1
Procedure: as §1, §2, §3

[7] = system: HL-60 (Acute Promyelocytic Leukemia); assay: Cell viability analysis (WST-1), HL-60; settings: Homo sapiens, HL-60; Table 3; drug 10 μM, 72 hours, WST-1, OD450 nm; read-out: survival rate (viability) of cancer cells, HL-60
[8] = system: H1650 (Lung Adenocarcinoma); assay: Cell viability analysis (WST-1), H1650; settings: Homo sapiens, WST-1, OD450 nm, read-out: survival rate (viability) of cancer cells, H1650
[9] = system: A549 (Lung Adenocarcinoma); assay: Cell viability analysis (WST-1), A549; settings: Homo sapiens, WST-1, OD450 nm, read-out: survival rate (viability) of cancer cells, A549
[10] = system: HepG2 (Hepatocellular Carcinoma); assay: Cell viability analysis (WST-1), HepG2; settings: Homo sapiens, WST-1, OD450 nm, read-out: survival rate (viability) of cancer cells, HepG2
[11] = system: HeLa (Cervix Adenocarcinoma); assay: Cell viability analysis (WST-1), HeLa; settings: Homo sapiens, HeLa, WST-1, OD450 nm, read-out: survival rate (viability) of cancer cells, HeLa
[12] = system: LoVo (Colorectal Adenocarcinoma); assay: Cell viability analysis (WST-1), LoVo; settings: Homo sapiens, LoVo, WST-1, OD450 nm, read-out: survival rate (viability) of cancer cells, LoVo
cancer cell lines = assay: Growth inhibitory effects on the panel of cancer cell lines; settings: drug 10 μM, 72 hours; for Numbers of inhibitory effect on cancer cell line: count of cancer cell lines inhibited; for inhibition effect on different cancer cell lines (in words): WST-1
[13] = system: A375 (Amelanotic Melanoma); assay: Cell viability analysis (WST-1), A375; settings: Homo sapiens, WST-1, OD450 nm, lower viability = better inhibition, read-out: survival rate (viability) of cancer cells, A375
[14] = 72 h, Table 3, drug 10 μM, WST-1, OD450 nm, read-out: survival rate (viability) of cancer cells, TSGH
[15] = NCI-H1650, 72 h, Table 3, drug 10 μM
[16] = 72 h, Table 3, drug 10 μM, WST-1, OD450 nm, read-out: survival rate (viability) of cancer cells, AGS
[17] = A549, 72 h, Table 3, drug 10 μM
[18] = MKN-45, 72 h, Table 3, drug 10 μM, WST-1, OD450 nm, read-out: survival rate (viability) of cancer cells, MKN-45
[19] = MCF7, 72 h, Table 3, drug 10 μM, WST-1, OD450 nm, read-out: survival rate (viability) of cancer cells, MCF7
[20] = HCT-116, 72 h, Table 3, drug 10 μM, WST-1, OD450 nm, read-out: survival rate (viability) of cancer cells, HCT116 (WT)
[21] = HepG2, 72 h, Table 3, drug 10 μM
[22] = 72 h, Table 3, drug 10 μM, WST-1, OD450 nm, read-out: survival rate (viability) of cancer cells, PC3
[23] = A-375, 72 h, Table 3, drug 10 μM

CC1=C(C(=O)OC(C)C)C(c2cccc([N+](=O)[O-])c2)C(C(=O)OC2CN(C(c3ccccc3)c3ccccc3)C2)=C(N)N1 (stereo not shown) [Azelnidipine]
viability at 10 µM (BxPC-3): 64.6% | viability at 10 µM ([1]; 72 h, Table 4, repeated experiments, drug 10 μM, WST-1, read-out: survival rate (viability) of cancer cells, TSGH-8301): 115% | viability at 10 µM (BCC): 100% | viability at 10 µM ([2]; 72 h, Table 4, repeated experiments, drug 10 μM, WST-1, read-out: survival rate (viability) of cancer cells, AGS): 90.2% | viability at 10 µM ([3]; MKN-45, 72 h, Table 4, repeated experiments, drug 10 μM, WST-1, read-out: survival rate (viability) of cancer cells, MKN-45): 139% | viability at 10 µM ([4]; MCF7, 72 h, Table 4, repeated experiments, drug 10 μM, WST-1, read-out: survival rate (viability) of cancer cells, MCF-7): 60.8% | viability at 10 µM ([5]; HCT-116, 72 h, Table 4, repeated experiments, drug 10 μM, WST-1, read-out: survival rate (viability) of cancer cells, HCT116): 111% | viability at 10 µM (SAS): 76.8% | viability at 10 µM ([6]; 72 h, Table 4, repeated experiments, drug 10 μM, WST-1, read-out: survival rate (viability) of cancer cells, PC-3): 121% | viability at 10 µM (AsPC-1): 53.6%

CC(=O)NS(=O)(=O)c1ccc(N)cc1 [sulfacetamide sodium]
viability at 10 µM [7]: 112% | viability at 10 µM [1, 14]: 120% | viability at 10 µM [8, 15]: 79.8% | viability at 10 µM [2, 16]: 81.4% | viability at 10 µM [9, 17]: 70% | viability at 10 µM [3, 18]: 118% | viability at 10 µM [4, 19]: 110% | viability at 10 µM [5, 20]: 76.7% | viability at 10 µM [10, 21]: 98.7% | viability at 10 µM [6, 22]: 70.8% | viability at 10 µM ([11]; 72 h, Table 3, drug 10 μM): 75.9% | viability at 10 µM ([12]; 72 h, Table 3, drug 10 μM): 81.8% | Numbers of inhibitory effect on cancer cell line (cancer cell lines): 0 | inhibition effect on different cancer cell lines (in words) (cancer cell lines): significant inhibition effect | viability at 10 µM [13, 23]: 64.9%

Cc1c(OCC(F)(F)F)ccnc1C[S@@+]([O-])c1nc2ccccc2[nH]1 [Dexlansoprazole]
viability at 10 µM [7]: 72.2% | viability at 10 µM [1, 14]: 84.9% | viability at 10 µM [8, 15]: 69.6% | viability at 10 µM [2, 16]: 89.8% | viability at 10 µM [9, 17]: 74.5% | viability at 10 µM [3, 18]: 85.8% | viability at 10 µM [4, 19]: 72.1% | viability at 10 µM [5, 20]: 82.8% | viability at 10 µM [10, 21]: 120% | viability at 10 µM [6, 22]: 104% | viability at 10 µM ([11]; 72 h, Table 3, drug 10 μM): 105% | viability at 10 µM ([12]; 72 h, Table 3, drug 10 μM): 102% | Numbers of inhibitory effect on cancer cell line (cancer cell lines): 0 | inhibition effect on different cancer cell lines (in words) (cancer cell lines): significant inhibition effect | viability at 10 µM [13, 23]: 75.1%

CCN(C)C(=O)Oc1cccc([C@H](C)N(C)C)c1 [Rivastigmine tartrate (Exelon), Rivastigmine tartrate]
viability at 10 µM [7]: 103% | viability at 10 µM ([1]; Table 3, drug 10 μM, 72 hours, WST-1, OD450 nm, read-out: survival rate (viability) of cancer cells, TSGH): 83.9% | viability at 10 µM ([8]; NCI-H1650, Table 3, drug 10 μM, 72 hours): 83.6% | viability at 10 µM ([2]; Table 3, drug 10 μM, 72 hours, WST-1, OD450 nm, read-out: survival rate (viability) of cancer cells, AGS): 63.6% | viability at 10 µM ([9]; A549, Table 3, drug 10 μM, 72 hours): 65.9% | viability at 10 µM ([3]; MKN-45, Table 3, drug 10 μM, 72 hours, WST-1, OD450 nm, read-out: survival rate (viability) of cancer cells, MKN-45): 93.8% | viability at 10 µM ([4]; MCF7, Table 3, drug 10 μM, 72 hours, WST-1, OD450 nm, read-out: survival rate (viability) of cancer cells, MCF7): 67.5% | viability at 10 µM ([5]; HCT-116, Table 3, drug 10 μM, 72 hours, WST-1, OD450 nm, read-out: survival rate (viability) of cancer cells, HCT116 (WT)): 118% | viability at 10 µM ([10]; HepG2, Table 3, drug 10 μM, 72 hours): 93.7% | viability at 10 µM ([6]; Table 3, drug 10 μM, 72 hours, WST-1, OD450 nm, read-out: survival rate (viability) of cancer cells, PC3): 85.4% | viability at 10 µM ([11]; Table 3, drug 10 μM, 72 hours): 90.1% | viability at 10 µM ([12]; Table 3, drug 10 μM, 72 hours): 85.4% | Numbers of inhibitory effect on cancer cell line (cancer cell lines): 0 | inhibition effect on different cancer cell lines (in words) (cancer cell lines): significant inhibition effect | viability at 10 µM ([13]; A-375, Table 3, drug 10 μM, 72 hours): 76.1%

COCCCOc1cc(C[C@@H](C[C@H](N)[C@@H](O)C[C@H](C(=O)NCC(C)(C)C(N)=O)C(C)C)C(C)C)ccc1OC [Aliskiren hemifumarate]
viability at 10 µM [7]: 98.5% | viability at 10 µM [1, 14]: 73.3% | viability at 10 µM [8, 15]: 79.8% | viability at 10 µM [2, 16]: 81.8% | viability at 10 µM [9, 17]: 92% | viability at 10 µM [3, 18]: 85.1% | viability at 10 µM [4, 19]: 99.1% | viability at 10 µM [5, 20]: 97.2% | viability at 10 µM [10, 21]: 94.2% | viability at 10 µM [6, 22]: 89% | viability at 10 µM ([11]; 72 h, Table 3, drug 10 μM): 108% | viability at 10 µM ([12]; 72 h, Table 3, drug 10 μM): 99.5% | Numbers of inhibitory effect on cancer cell line (cancer cell lines): 0 | inhibition effect on different cancer cell lines (in words) (cancer cell lines): significant inhibition effect | viability at 10 µM [13, 23]: 91.2%

Reference: patent US20170304388A1, “NEW INDICATION OF CARDIOVASCULAR DRUGS FOR PREPARATION OF CANCER INHIBITION PHARMACEUTICAL COMPOSITION” (LAUNX BIOMEDICAL CO., LTD., priority 2014, published 2017)
